Data on two compounds can be found in article PMC7265429, “Characterization of a new small-molecule inhibitor of HDAC6 in glioblastoma” (Cell Death & Disease, 2020).

In test [1] the test system is U87-MG cells. Nature of the test: Cell viability in combined treatments with TMZ. The class given is cell-based. Conditions: Homo sapiens, U-87 MG, 100 μM TMZ, 72 h, read-out: cell viability, TMZ alone. On the procedure: (§1) Glioma-cell lines were seeded at a density of 1.5 × 10^3 cells/well in 96-well plates, with six replicates per condition. […] Cell viability was determined by MTT assay at 72 h after treatment. For this, MTT (3-(4,5-dimethyl-2-thiazolyl)-2,5-diphenyl-2H-tetrazolium bromide) reagent was added and, after a 3 h incubation at 37 °C and 5% CO2, media was removed and the formed crystals were resuspended in DMSO. Plates were measured at 570 nm using a spectrophotometer. Results were analyzed by GraphPad Prism software and IC50 values were calculated.

The test system of test [2] is U87-MG cells. Nature of the test: Dose-response MTT cell viability assay, U87-MG. The class given is cell-based. The settings on record: Homo sapiens, U-87 MG, 72 h, Fig. 2d. Here is the method:
as §1
(In general: Tetrazolium assays rely on reduction of a dye to a coloured formazan, in cell work by metabolically active cells.)

The test system of a further test is U251-MG cells. Nature of the test: Dose-response MTT cell viability assay, U251-MG. The class given is cell-based. Conditions: Homo sapiens, U-251, 72 h, Fig. 2d. Here is the method:
as §1

The subject of the next test is U373-MG cells. Nature of the test: Dose-response MTT cell viability assay, U373-MG. Conditions: Homo sapiens, 72 h, Fig. 2d. The class given is cell-based. On the procedure:
as §1

The next test concerns T98-G cells. The test can be described thus: Dose-response MTT cell viability assay, T98-G. The class given is cell-based. Conditions: Homo sapiens, T98G, 72 h, Fig. 2d. Here is the method:
as §1

The test system of another test is A172 cells. The test can be described thus: Dose-response MTT cell viability assay, A172. The settings on record: Homo sapiens, A 172, 72 h, Fig. 2d. Format: cell-based. On the procedure:
as §1

In test [3] the test system is patient-derived GNS166 stem cells. The test can be described thus: Dose-response MTT cell viability assay, GNS166. The class given is cell-based. Conditions: Homo sapiens, 72 h, Fig. 2d. On the procedure:
as §1

Test [4] concerns patient-derived GNS179 stem cells. Nature of the test: Dose-response MTT cell viability assay, GNS179. The class given is cell-based. Conditions: Homo sapiens, 72 h, Fig. 2d. On the procedure: as §1
The subject of test [5] is acetyl-α-tubulin (HDAC6 main target) in U251-MG cells. Nature of the test: Western blot of acetyl-α-tubulin and cleaved PARP in U251-MG. Format: cell-based, human. The settings on record: 10 nM, 48 h. Here is the method:
Immunoblots were performed following standard procedures. […] Detection was performed by chemiluminiscence using NOVEX ECL Chemi Substrate (ThermoFisher).

Molecules are shown by their SMILES.

`Cn1nnc2c(C(N)=O)ncn2c1=O` [TMZ, temozolomide]: the viability (usually a per cent measure of how many cells are alive, often set against a control) at 100 µM in the test with U87-MG cells [1] was 85%.

Turning to `CN1CCc2c(c3ccccc3n2Cc2ccc(C(=O)NO)cc2)C1` [Tubastatin A], the IC50 (commonly the point on the concentration scale where inhibition reaches its midpoint) came to 23.7 µM with U87-MG cells [2]; 26.3 µM in the test on U251-MG cells; 13.2 µM in the test with U373-MG cells; 104 µM in the test with T98-G cells; 52.5 µM with A172 cells; 26.4 µM in [3]. Further, in test [4], inhibition was half-maximal at 175 µM (IC50). The α-tubulin hyperacetylation entry in test [5] is “did not”.
